{"source": "ChEMBL document CHEMBL1128863", "about": "“6-Imino-1,3-oxazines: a new class of hepatoprotectants” (Bioorg Med Chem Lett, 1995)", "key": {"Rattus norvegicus [1]": {"tested_on": "Rattus norvegicus", "assay": "Hepatoprotective activity against bilirubin for thioacetamide-induced toxicity in rats at 6 mg/kg dose for 7 days by ip administration", "assay_type": "functional"}, "[2]": {"target": "T1, Alkaline phosphatase, tissue-nonspecific isozyme (Rattus norvegicus) (UniProt P08289)", "T1 sequence (whole entry)": "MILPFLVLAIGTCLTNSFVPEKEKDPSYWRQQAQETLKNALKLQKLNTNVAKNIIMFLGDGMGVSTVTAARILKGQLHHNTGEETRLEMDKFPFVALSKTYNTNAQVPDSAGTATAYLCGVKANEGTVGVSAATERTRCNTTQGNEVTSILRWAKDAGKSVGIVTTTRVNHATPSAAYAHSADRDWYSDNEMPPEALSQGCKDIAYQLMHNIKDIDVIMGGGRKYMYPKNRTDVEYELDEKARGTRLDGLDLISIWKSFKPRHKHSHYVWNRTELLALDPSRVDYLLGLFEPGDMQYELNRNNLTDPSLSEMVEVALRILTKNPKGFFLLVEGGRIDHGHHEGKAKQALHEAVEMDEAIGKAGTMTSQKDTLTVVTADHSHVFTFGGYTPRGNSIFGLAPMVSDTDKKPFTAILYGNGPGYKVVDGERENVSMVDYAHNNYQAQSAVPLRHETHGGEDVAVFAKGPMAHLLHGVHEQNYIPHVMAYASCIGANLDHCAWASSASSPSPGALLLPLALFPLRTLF", "assay": "(§1) Hepatoprotective activity against alkaline phosphatase (ALP) for thioacetamide-induced toxicity in rats at 6 mg/kg dose for 7 days by ip administration", "assay_type": "functional, organism-based", "design": "dose 6 mg/kg"}, "[3]": {"target": "T2, Alanine aminotransferase 1 (Rattus norvegicus) (UniProt P25409)", "T2 sequence (whole entry)": "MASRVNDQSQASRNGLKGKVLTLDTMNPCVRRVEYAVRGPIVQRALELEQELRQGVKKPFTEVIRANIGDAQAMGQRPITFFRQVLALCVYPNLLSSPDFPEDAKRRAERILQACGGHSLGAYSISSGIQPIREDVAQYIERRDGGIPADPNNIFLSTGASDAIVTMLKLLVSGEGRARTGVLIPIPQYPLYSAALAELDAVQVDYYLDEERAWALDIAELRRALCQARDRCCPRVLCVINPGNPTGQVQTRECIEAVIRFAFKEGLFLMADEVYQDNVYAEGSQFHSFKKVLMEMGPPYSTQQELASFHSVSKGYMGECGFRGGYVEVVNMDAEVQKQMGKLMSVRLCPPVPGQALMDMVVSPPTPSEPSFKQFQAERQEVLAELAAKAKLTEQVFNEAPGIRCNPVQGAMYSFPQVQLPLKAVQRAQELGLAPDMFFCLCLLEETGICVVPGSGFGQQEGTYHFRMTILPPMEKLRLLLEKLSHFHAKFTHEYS", "assay": "(§2) Hepatoprotective activity against glutamate pyruvate transaminase (GTP) for thioacetamide-induced toxicity in rats at 6 mg/kg dose for 7 days by ip administration", "assay_type": "functional, organism-based", "design": "dose 6 mg/kg"}, "[4]": {"assay": "Hepatoprotective activity against glutamate oxaloacetate transaminase (GOT) for thioacetamide-induced toxicity in rats at 6 mg/kg dose for 7 days by ip administration", "assay_type": "functional"}, "[5]": {"target": "Alkaline phosphatase, tissue-nonspecific isozyme (Rattus norvegicus) (UniProt P08289)", "assay": "as §1", "assay_type": "functional, organism-based", "design": "dose 6 mg/kg", "remark": "listed apart in the source"}, "[6]": {"target": "Alanine aminotransferase 1 (Rattus norvegicus) (UniProt P25409)", "assay": "as §2", "assay_type": "functional, organism-based", "design": "dose 6 mg/kg", "remark": "listed apart in the source"}, "Rattus norvegicus [7]": {"tested_on": "Rattus norvegicus", "assay": "Effective dose administered perorally in rats in various models of liver injuries", "assay_type": "functional"}, "[8]": {"assay": "Lethal dose administered perorally in rats in various models of liver injuries", "assay_type": "toxicity", "conditions": "rat, in vivo, po"}}, "data": [{"compound": "CCOC(=O)c1c(SC)nc(C(F)(F)F)oc1=N", "values": [{"measurement": "Protection", "setting": "Rattus norvegicus [1]; route intraperitoneal", "value": 14, "unit": "%"}, {"measurement": "Protection", "setting": "[2]", "value": 28, "unit": "%"}, {"measurement": "Protection", "setting": "[3]", "value": 54, "unit": "%"}, {"measurement": "Protection", "setting": "[4]; route intraperitoneal", "value": 66, "unit": "%"}]}, {"compound": "SILYMARIN", "values": [{"measurement": "Protection", "setting": "Rattus norvegicus [1]", "value": 61, "unit": "%"}, {"measurement": "Protection", "setting": "[5]", "value": 47, "unit": "%"}, {"measurement": "Protection", "setting": "[6]", "value": 47.2, "unit": "%"}, {"measurement": "Protection", "setting": "[4]", "value": 50.1, "unit": "%"}]}, {"compound": "CSc1nc(-c2ccccc2)oc(=N)c1C#N", "values": [{"measurement": "Protection", "setting": "Rattus norvegicus [1]; route intraperitoneal", "value": 19, "unit": "%"}, {"measurement": "Protection", "setting": "[2]", "value": 30, "unit": "%"}, {"measurement": "Protection", "setting": "[3]", "value": 19, "unit": "%"}, {"measurement": "Protection", "setting": "[4]; route intraperitoneal", "value": 26, "unit": "%"}]}, {"compound": "N#Cc1c(N)oc(-c2ccccc2)n/c1=N\\N", "values": [{"measurement": "Protection", "setting": "Rattus norvegicus [1]; route intraperitoneal", "value": 0, "unit": "%"}, {"measurement": "Protection", "setting": "[2]", "value": 12, "unit": "%"}, {"measurement": "Protection", "setting": "[3]", "value": 19, "unit": "%"}, {"measurement": "Protection", "setting": "[4]; route intraperitoneal", "value": 17, "unit": "%"}]}, {"compound": "COc1ccn(C)c(=O)c1C#N", "note": "[RICININE]", "values": [{"measurement": "ED", "setting": "Rattus norvegicus [7]", "value": 6, "unit": "mg/kg"}, {"measurement": "LD50", "setting": "[8]", "value": 80, "unit": "mg/kg"}]}, {"compound": "CCOC(=O)c1c(SC)nc(C)oc1=N", "values": [{"measurement": "Protection", "setting": "Rattus norvegicus [1]; route intraperitoneal", "value": 11, "unit": "%"}, {"measurement": "Protection", "setting": "[2]", "value": 36, "unit": "%"}, {"measurement": "Protection", "setting": "[3]", "value": 29, "unit": "%"}, {"measurement": "Protection", "setting": "[4]; route intraperitoneal", "value": 26, "unit": "%"}]}, {"compound": "CCOC(=O)c1c(SC)nc(-c2ccccc2)oc1=N", "values": [{"measurement": "Protection", "setting": "Rattus norvegicus [1]; route intraperitoneal", "value": 33, "unit": "%"}, {"measurement": "Protection", "setting": "[2]", "value": 41, "unit": "%"}, {"measurement": "Protection", "setting": "[3]", "value": 39, "unit": "%"}, {"measurement": "Protection", "setting": "[4]; route intraperitoneal", "value": 33, "unit": "%"}]}]}
